# Laboratory results published in patent publication US9226914B2, “Methods for promoting neuronal development and/or health” (Mead Johnson Nutrition Company, priority 2013, dated 2016).
# How the values were obtained:
# [1] = tested on: frontal cortex neuronal networks (cortical network activity in vitro); test: Acute effects on cortical neuronal network activity on MEA neurochips (spike train analysis); type: cell-based, mice
# Description: The experiments were performed according to the SOPs, “SOP Preparation Frontal Cortex Mouse—Serum (Rev. 07 2012 Mar. 6 eng)”, “SOP Solutions for Neuronal Cell Culture (Rev. 04 2009 Nov. 18 eng)”, “SOP Cleaning and Substrate Preparations of MEAs (Rev. 03 2009 Apr. 26 eng)”, “SOP Feeding neuronal cell culture”, “SOP Cell culture preparation MEAs”, “SOP Plexon Recording” and “SOP Plexon Data Analysis”.
# The microelectrode array neurochips (“MEA neurochips”) were provided by the Center for Network Neuroscience (CNNS) at the University of North Texas. These 5×5 cm^2 glass chips have a dual recording matrix with 32 passive electrodes per matrix and indium tin oxide conductors. The hydrophobic insulation material surface was activated by a brief butane flame pulse through a stainless steel mask. Thus, cell attachment on a confined region, a 5 mm diameter centered on the electrode array, is ensured. The activated face regions were coated with 25 μg/mL poly-D-lysine (30-70 kD) and incubated […] in 16 μg/mL laminin for 3 hours right before the preparation.
# Frontal cortex tissue was harvested from embryonic day 15 chr:NMRI mice. Mice were sacrificed by cervical dislocation according to the German Animal Protection Act Section 4. Cultures on MEAs were incubated at 37 deg. C. in a 10% CO2 atmosphere until ready for use, which usually is four weeks to three months after seeding. Culture media were replenished two times a week with DMEM containing 10% heat inactivated horse serum. The developing co-cultures were treated with the mitosis inhibitor 5-fluoro-2′-deoxyuridine (25 μMolar) and uridine (63 μMolar) for 48 hours on day 5 after seeding to prevent further glial proliferation.
# After establishing a stable activity pattern after 4 weeks, the neuronal networks on MEA chips were employed for substance testing. For this example, cultures between 25 and 38 days in vitro were used. For extracellular recording, MEA neurochips were placed into sterilized constant-bath recording chambers and maintained at 37 deg. C. Recordings were made in DMEM including 10% heat inactivated horse serum. The pH was maintained at 7.4 with a continuous stream of filtered, humidified airflow with 10% CO2. Sets of preamplifiers were positioned to either side of the recording chamber. Recording was performed with the multichannel acquisition processor system, a computer-controlled 64-channel amplifier system (Plexon, Inc., Dallas, Tex., USA) providing programmable amplification, filtering, switching, and digital signal processing of microelectrode signals. The total system gain used was 10K with a simultaneous 40 kHz sampling rate. The signals routinely recorded by these neurochips are located in a range of 15-1800 microV.
# The multichannel signal acquisition system delivered single neuron spike data. Spike identification and separation were accomplished with a template-matching algorithm in real time. This allows for the extracellular recording from action potentials from a maximum of 256 neurons simultaneously.
# The action potentials, or spikes, were recorded in spike trains and are clustered in so-called bursts. Bursts were quantitatively described via direct spike train analysis using the program NeuroEXplorer (Plexon Inc., Dallas, Tex., USA) and in house programs. Bursts were defined by the beginning and the end of short spike invents. Maximum spike intervals defining the start of a burst were 40 ms and maximum intervals to end a burst from 200 ms.
# (§1) All compounds were recorded with a fixed DMSO concentration of 0.1% throughout the experiments. Due to the fact that alpha-lipoic acid was investigated at concentrations between 100 μM and 5 mM, the solvent concentration reached 0.7%.
# The high content analysis of the network activity patterns provides a multiparametric description characterized in four activity categories: general activity, burst structure, synchronicity and oscillatory behavior. […]
# [2] = Precipitation on dilution of stock into experiment bath solution; type: physicochemical; details: 1 M stock in 100% DMSO; bath 1, 3 and 5 mM
# Description: as §1, with “0.7%. […] Working solutions of all compounds were freshly prepared for each experiment day and between 0.9 and 10 μL were applied to a 1 mL experiment bath solution.” for “0.7%.”
# [3] = tested on: neuronal activity (spike rate and burst rate); test: Chronic effects of hBDNF on neuronal activity development in the MEA system; type: cell-based; details: 20 ng/ml, FIG. 15
# Text: For neurotrophic factors such as hBDNF, NeuroProof tested the chronic effects in the MEA system (See FIG. 15).
molecule,measurement,setting,value
"CC/C=C\C/C=C\C/C=C\C/C=C\C/C=C\C/C=C\CCC(=O)O [DHA, docosahexaenoic acid]","activity (spike rate fit), activity decline reached","[1]; 100 μM DHA, highest tested concentration, FIG. 5",63.6 % of native activity
same,concentration at which spike rates and burst rates are reduced,[1]; increasing effects at higher concentrations,≥ 100 pM
"O=C(O)CCCCC1CCSS1 (stereo not drawn) [ALA, alpha-lipoic acid]",activity reached (spike rate fit),"[1]; 100 μM alpha-lipoic acid, FIG. 6",91.5 % of control (0.1% DMSO) activity
same,activity reached (spike rate fit),"[1]; 1 mM alpha-lipoic acid, FIG. 6",83.6 % of control (0.1% DMSO) activity
same,activity reached (spike rate fit),"[1]; 5 mM alpha-lipoic acid, FIG. 6",43.9 % of control (0.1% DMSO) activity
same,concentration at which general activity is affected (spike rate fit),[1]; FIG. 6,above 100 μM
same,EC50,"[1]; Mus musculus, concentration of ALA, FIGS. 9 and 10, read-out: EC50 for the decline of activity",5.03 mM
same,Hill coefficient (nH) of the decline of activity,"[1]; concentrations above 100 μM ALA, higher value = steeper slope",1.66
same,concentration at which general activity is reduced,[1]; experimental concentrations,≥ 1 mM
same,precipitation during dilution,[2],precipitation of alpha-lipoic acid occurred at the three highest concentrations
"hBDNF: Human recombinant brain derived neurotrophic factor, PeproTech #450-02",effect on general activity,"[1]; above 500 pg/mL, tested 10 pg/mL to 50 μg/mL",only shows slight effects on the general activity which is numerically increased
same,EC50 on spike rate,[1]; acute application,5.28 ng/mL
same,acceleration of neuronal activity development,[3]; chronic,approximately one week
same,"general activity (spike rate, burst rate), chronic treatment",[3]; versus vehicle,increases the general activity at every recorded time point
